Laboratory results: patent US9572786B2, “Use of capsiate or dihydrocapsidate” (Catholic University Industry Academy Cooperation Foundation, priority 2007, dated 2017)

Key:
MMP-2 = MMP-2 mRNA in mouse skin, RT-PCR; type: in vivo; settings: mouse tissue of Example 5; normalized using GAPDH
Method: mRNA was extracted from the mouse tissue of each test group of Example 5 and the level of expression thereof was evaluated in order to investigate the effect of capsiate on the expression of MMP-2 and MMP-9 induced by angiogenesis and immune response.
For RNA extraction from the tissue, each mouse tissue was subjected to skin biopsy, quickly frozen in liquid nitrogen and finely ground using a mortar. RNA was extracted from the mouse tissue using Trizol (Invitrogen, USA). PCR (PTC-225 Peltier thermal cycler, MJ Research, USA) was carried out using the RNA as template and using a commercial kit (reverse transcription system, Qiagen, USA). As a result, cDNA for each test group was prepared.
RT-PCR (Rotor Gene 6 series, Corbett Research, Australia) was carried out using thus prepared cDNA as template and using MMP-2 and MMP-9 primers (Qiagen, USA). The level of mRNA expression for MMP was normalized using GAPDH. The level of expression was compared with that of the non-treated group, which was treated with acetone only.

NF-κB = assay: UV-induced NF-κB activation, immunohistochemical staining; type: cell-based, human; settings: HaCaT cells; 25 μM; UV 100 J/m^2; 4 hours
Method: In order to investigate whether the transcription factor NF-κB is activated, the human keratinocyte cell line HaCaT cells were stained by immunohistochemical staining as follows.
The cells were placed on a 14 mm culture slide and cultured for 24 hours in DMEM containing 10% FBS. Subsequently, the cells were cultured for 24 hours in DMEM containing 1% FBS until starvation. Then, after treating with 25 μM capsiate for 30 minutes, followed by washing 3 times with PBS, UV was irradiated at an intensity of 100 J/m^2. Immediately after the UV irradiation, the cells were washed again with PBS and further cultured for 4 hours in DMEM containing 1% FBS, which was treated with capsiate at the same concentration as in the pre-treatment. The cells were fixed for 5 minutes using methanol for immunohistochemical staining.
The fixed cells were blocked using 10% normal goat serum and washed 3 times with PBS. After fluorescence staining NF-κB using rabbit anti-NF-κB antibody (Santa Cruz, USA) and Alexa 488-labeled anti-rabbit IgG secondary antibody (Invitrogen, USA), counter staining was carried out using Hoechst (Sigma, St. Louis, Mo.).

IL-6 = assay: UV-induced IL-6 mRNA in hairless mouse skin, RT-PCR; type: in vivo; settings: 200 μL of 1 mM topically 1 hour before UV 5 kJ/m^2 once, 6 hours later
Method: In order to investigate the effect of capsiate on the production of IL-6 and TNF-α induced in skin tissue during inflammatory response, the inhibition ability of capsiate against the expression of the pro-inflammatory cytokines was evaluated in animal model as follows. Test groups were as follows: non-treated group—treated with acetone only without UV irradiation; test group A—treated with 200 μL of 1 mM capsiate dissolved in acetone without UV irradiation; UV group—treated with acetone and UV; test group B—treated with 200 μL of 1 mM capsiate dissolved in acetone followed by UV irradiation 1 hour later.
To this end, acetone and capsiate were treated prior to UV irradiation. After treating with UV once at an intensity of 5 kJ/m^2, hairless mouse was euthanized 6 hours later. mRNA was extracted from the mouse tissue obtained by skin biopsy and RT-PCR was carried out as follows. For RNA extraction from the tissue, each mouse tissue obtained by skin biopsy was quickly frozen in liquid nitrogen and ground finely using a mortar. RNA was extracted from the mouse tissue using Trizol (Invitrogen, USA), and PCR (PTC-225 Peltier thermal cycler, MJ Research, USA) was carried out using it as template and using a commercial kit (reverse transcription system, Qiagen, USA). As a result, cDNA was prepared from each group. […]

p38 = assay: MAPK signaling after UV, Western blotting: p38; type: cell-based, human; settings: HaCaT cells; 10, 25, 50 μM; 30 minutes after UV irradiation
Method: Western blotting was performed in the same manner as in Example 2-1 in order to identify the factor that affects the COX-2 expression regulated by capsiate, except for treating the cells with capsiate at different concentrations (10 μM, 25 μM and 50 μM) prior to UV irradiation, and using rabbit anti-ERK antibody, rabbit anti-p-ERK antibody, rabbit anti-p38 antibody, rabbit anti-p-p38 antibody, rabbit anti-JNK antibody and rabbit anti-p-JNK antibody (cell signaling), and anti-rabbit IgG-HRP conjugation antibody (Zymed) as the secondary antibody, 30 minutes after UV irradiation.

IL-8 = assay: UV-induced pro-inflammatory cytokine mRNA, RT-PCR: IL-8; type: cell-based, human; settings: HaCaT cells; 10, 25, 50 μM; UV 100 J/m^2; 4 hours
Method: 1×10^6 HaCaT cells were placed on a 100 mm Petri dish and cultured for 24 hours in DMEM containing 10% FBS. Subsequently, the cells were cultured for 24 hours in DMEM containing 1% FBS until starvation. Then, after treating with capsiate at different concentrations (10 μM, 25 μM, 50 μM) for 30 minutes, followed by washing 3 times with PBS, UV was irradiated at an intensity of 100 J/m^2 to induce the production of cytokines. Immediately after the UV irradiation, the cells were washed again with PBS and further cultured for 4 hours in DMEM containing 1% FBS, which was treated with capsiate at the same concentration as in the pre-treatment.
Then, the degree of mRNA expression for IL-6, IL-8 and TNF-α induced mainly in the skin by the UV irradiation was evaluated by RT-PCR in order to measure the inhibition effect against the pro-inflammatory cytokines.
RNAs were extracted from the cells of each test group using Trizol (Invitrogen, USA) and used as template for PCR (PTC-225 Peltier thermal cycler, MJ Research, USA) to prepare cDNAs for each test group. Using the resultant cDNAs as template, the degree of mRNA expression for IL-6, IL-8 and TNF-α was measured by RT-PCR (Roter Gene 6000 series, Corbett Research, Australia) using commercial IL-6, IL-8 and TNF-α primers. […]

COc1cc(COC(=O)CCCC/C=C/C(C)C)ccc1O [capsiate]
expression of MMP-2 (mRNA) in mouse skin tissue (MMP-2): decreased | UV-induced migration of NF-κB into the nuclei (NF-κB): inhibits | UV-induced expression of IL-6 (mRNA) in skin tissue (IL-6): decrease | p38 (phosphorylation) (p38): no particular change | expression of IL-8 (mRNA) increased by UV irradiation (IL-8): significantly decreases
